Results from patent publication US5880099A, “Inositol polyphosphates and methods of using same” (The Regents of the University of California, priority 1997, dated 1999).
Entries after “also recorded” stand apart in the source; their conditions may differ.

What was measured:
Format in all cases: cell-based, human
[1] = tested on: T84 cells (histamine-stimulated chloride ion secretion); experiment: Histamine-stimulated chloride ion secretion (short circuit current) in T84 monolayers; conditions: for effect on histamine-stimulated / calcium-mediated chloride ion secretion (in words): T84 cells; for activity at 200 µM: 200 μM compound alone
Experimental: Enantiomerically pure 1,2-Bt2 -Ins(3,4,5,6)P4 /AM was synthesized to determine if 1,2-Bt2 -Ins(3,4,5,6)P4 /AM mediates the uncoupling of chloride ion secretion from intracellular calcium concentrations. […] After 7-10 days of incubation on SNAP-WELLS (Corning Costar; Cambridge, Mass.), monolayers had formed tight junctions. Cell monolayers were preincubated with 100, 200 or 400 μM Bt2 -Ins(3,4,5,6)P4 /AM for 30 min prior to mounting. After an additional 30 min, 0.1 mM histamine was added and chloride ion secretion was monitored. Chloride ion secretion was measured as short circuit current (Isc) across T84 monolayers grown to confluence and mounted in Ussing chambers equipped with voltage clamps (Physiologic Instruments; San Diego, Calif.). Data was acquired and analyzed using "Acquire and Analyze" software (Physiologic Instruments).
(§1) Initial studies were directed towards understanding structural determinants of Ins(3,4,5,6)P4 responsible for the inhibitory effect on calcium-mediated chloride ion secretion. A series of cell permeable inositol polyphosphate derivatives were synthesized. These derivatives contained either one or two non-hydrolyzable chemical groups on the 1, 2 or 3 position. T84 monolayers were preincubated for 30 minutes with 200 μM of 2-Bt-1-Me-Ins(3,4,5,6)P4 /AM, Me2 -Ins(3,4,5,6)P4 /AM, Me2 -Ins(1,4,5,6)P4 /AM or 2-Bt-3-Me-Ins(1,4,5,6)P4 /AM.
(§2) Following the incubation, cells were mounted in Ussing chambers. Calcium-mediated chloride ion secretion was stimulated with histamine (10^-4 M). Control values were the response to histamine in coincubated monolayers. Data are represented as mean peak ΔIsc ±SEM, expressed as % control for 8 to 10 experiments. Significant differences were identified using the Student's two-tailed t test.

[2] = tested on: colonic epithelial T84 cells (calcium-mediated chloride ion secretion); experiment: Inhibition of calcium-mediated chloride ion secretion (Table I summary)
Text: The invention provides compounds that are agonists or antagonists of inositol polyphosphates. Inositol polyphosphate derivatives can function as inositol polyphosphate agonists and antagonists. The effects of compounds of the invention on Ins(3,4,5,6)P4 - and PtdInsP3 -mediated inhibition of calcium-mediated chloride ion secretion are described in the Examples and summarized in Table I.
Enantiomerically pure 1,2-Bt2 -Ins(3,4,5,6)P4 /AM was synthesized to determine if 1,2-Bt2 -Ins(3,4,5,6)P4 /AM mediates the uncoupling of chloride ion secretion from intracellular calcium concentrations. T84 cells (passages 18-48) were maintained as described previously (Weymer, et al., J. Clin. Invest. 76:1828 (1985)), which is incorporated herein by reference. After 7-10 days of incubation on SNAP-WELLS (Corning Costar; Cambridge, Mass.), monolayers had formed tight junctions. Cell monolayers were preincubated with 100, 200 or 400 μM Bt2 -Ins(3,4,5,6)P4 /AM for 30 min prior to mounting. After an additional 30 min, 0.1 mM histamine was added and chloride ion secretion was monitored. Chloride ion secretion was measured as short circuit current (Isc) across T84 monolayers grown to confluence and mounted in Ussing chambers equipped with voltage clamps (Physiologic Instruments; San Diego, Calif.). Data was acquired and analyzed using "Acquire and Analyze" software (Physiologic Instruments).

[3] = tested on: T84 cells (Ins(3,4,5,6)P4 inhibition of histamine-stimulated chloride ion secretion); experiment: Reversal of Bt2 -Ins(3,4,5,6)P4 /AM inhibition of histamine-stimulated chloride ion secretion in T84 cells; conditions: for Peak ΔIsc (% Control) after histamine (100 μM): 200 μM antagonist + 200 μM Bt2 Ins (3,4,5,6)P4 /AM, mean ± SEM, 30 min; for reversal of the inhibitory effect of Bt2 -Ins(3,4,5,6)P4 /AM / Ins(3,4,5,6)P4-mediated inhibition (in words): T84 cells, histamine-stimulated
Experimental: as §1, §2
T84 cells were preincubated with cell permeant inositol polyphosphates as described above to determine if any of the inositol polyphosphate derivatives function as antagonists of Ins(3,4,5,6)P4 inhibition of calcium-mediated chloride ion secretion. Following histamine stimulation, short circuit current was measured. […] The % control shown in FIG. 3 represents ΔIsc over peak Isc in control monolayers stimulated with histamine. However, […]

[4] = tested on: T84 colonic epithelial cells (carbachol-mediated inhibition of chloride ion secretion); experiment: Reversal of carbachol-mediated inhibition of thapsigargin-stimulated chloride ion secretion in T84 cells; conditions: carbachol 10^-4 M, thapsigargin 1 μM
Experimental: T84 colonic epithelial cells were treated with D,L-1,2-cyclohexylidene-Ins(3,4,5,6)P4 /AM, 1-Bu-2-Bt-Ins(3,4,5,6)P4 /AM, Bu2 -Ins(3,4,5,6)P4 /AM, 3-Bt-2-Bu-Ins(1,4,5,6)P4 /AM, Bu2 -Ins(1,4,5,6)P4 /AM, 1-Bt-2-Bu-Ins(3,4,5,6)P4 /AM or 3-Bu-2-Bt-Ins(1,4,5,6)P4 /AM and the short circuit current was measured.
One set of cells was preincubated for 30 min with an inositol polyphosphate derivative. The other two sets of cells were preincubated with vehicle, alone. Measurement of Isc was initiated at time 0. At 5 min, carbachol (10^-4 M) was added to one set of cells preincubated with vehicle alone (designated "Carbachol" in FIG. 5) and to the set of cells preincubated with inositol polyphosphate derivatives (designated "Carbachol+D,L-1,2-Cyclohexylidene-Ins(3,4,5,6)P4 /AM" in FIG. 5A). At 30 min, 1 μM thapsigargin was added. Data were collected for n=4 to 6 experiments.

[5] = tested on: T84 cells (carbachol-stimulated chloride ion secretion); experiment: Carbachol-stimulated (calcium-mediated) chloride ion secretion in T84 cells; conditions: for effect on carbachol-stimulated / calcium-mediated chloride ion secretion (in words): T84 cells, preincubation
Experimental: The cell permeable derivative D,L-Bt3 -Ins(1,3,4)P3 /AM was synthesized. Colonic epithelial T84 cells were preincubated for 30 min with 400 μM D,L-Bt3 -Ins(1,3,4)P3 /AM prior to mounting in Ussing chambers and measuring ΔIsc. At 10 min, carbachol (10^-4 M) was added to transiently stimulate calcium-mediated chloride ion secretion. Data were the average of 8 experiments with p<0.04, unpaired, two-sided student's t-test. […]

[6] = Homo sapiens, T84, 0.5 h, mean ± SEM, read-out: Peak ΔIsc (% Control) after histamine (100 μM)

Row | Molecule | Mechanism and Inositol Polyphosphate Pathway Affected ([2]; pathway: Ins (3,4,5,6)P4) | Peak ΔIsc (% Control) after histamine (100 μM) [3] | reversal of the inhibitory effect of Bt2 -Ins(3,4,5,6)P4 /AM / Ins(3,4,5,6)P4-mediated inhibition (in words) [3] | activity at 200 µM [1, 6] | also measured
1 | CC(=O)OCOP(=O)(OCOC(C)=O)O[C@H]1[C@H](OP(=O)(OCOC(C)=O)OCOC(C)=O)[C@@H](OP(=O)(OCOC(C)=O)OCOC(C)=O)[C@@H](Cl)[C@@H](Cl)[C@@H]1OP(=O)(OCOC(C)=O)OCOC(C)=O (relative stereo) [D,L-1,2-Cl2-dideoxy-Ins(3,4,5,6)P4 /AM, D,L-1,2-dichloro-1,2-dideoxy-myo-inositol 3,4,5,6-TKphosphate oct (acetoxymethyl) ester] | – | – | – | – | activity at 400 µM ([1]; Homo sapiens, T84, 0.5 h, 400 μM compound alone, mean ± SEM, read-out: Peak ΔIsc (% Control) after histamine (100 μM)): 89.4 ± 7.8%; effect on histamine-stimulated / calcium-mediated chloride ion secretion (in words) [1]: slight inhibitory effect on chloride ion secretion
2 | CCCC(=O)O[C@@H]1[C@@H](OC(=O)CCC)[C@H](OP(=O)(OCOC(C)=O)OCOC(C)=O)[C@@H](OP(=O)(OCOC(C)=O)OCOC(C)=O)[C@H](OP(=O)(OCOC(C)=O)OCOC(C)=O)[C@H]1OP(=O)(OCOC(C)=O)OCOC(C)=O (relative stereo) [D,L-Bt2 -scyllo-Ins(3,4,5,6)P4 /AM, D,L-1,2-O-butyryl-scyllo-inositol 3,4,5,6-TKphosphate oct (acetoxymethyl) ester] | Agonist of | – | – | – | effect on histamine-stimulated / calcium-mediated chloride ion secretion (in words) [1]: inhibit calcium-mediated chloride secretion; effect on histamine-stimulated / calcium-mediated chloride ion secretion (in words) ([1]; listed as scyllo derivative of the cell permeable Bt2 -Ins(3,4,5,6)P4 /AM): at least as effective an inhibitor as the myo derivative
3 | CCCC(=O)O[C@H]1[C@@H](OC)[C@H](OP(=O)(OCOC(C)=O)OCOC(C)=O)[C@@H](OP(=O)(OCOC(C)=O)OCOC(C)=O)[C@H](OP(=O)(OCOC(C)=O)OCOC(C)=O)[C@H]1OP(=O)(OCOC(C)=O)OCOC(C)=O [2-Bt-1-Me-Ins(3,4,5,6)P4 /AM, 2-O-butyryl-1-O-methyl-myo-inositol 3,4,5,6-TKphosphate oct (acetoxymethyl) ester] | Antagonist of | 117.7 ± 10.6 % Control | enhanced chloride ion secretion; also recorded: reversed Ins(3,4,5,6)P4 -mediated inhibition of chloride ion secretion; also recorded: reversed the inhibitory effect of Bt2 -Ins(3,4,5,6)P4 /AM | 87.3 ± 6.6% | –
4 | CCCC(=O)O[C@@H]1[C@H](OC)[C@@H](OP(=O)(OCOC(C)=O)OCOC(C)=O)[C@H](OP(=O)(OCOC(C)=O)OCOC(C)=O)[C@@H](OP(=O)(OCOC(C)=O)OCOC(C)=O)[C@@H]1OP(=O)(OCOC(C)=O)OCOC(C)=O [2-Bt-3-Me-Ins(1,4,5,6)P4 /AM, 2-O-butyryl-3-O-methyl-myo-inositol 3,4,5,6-TKphosphate oct (acetoxymethyl) ester] | – | 69.7 ± 5.04 % Control | had essentially no effect | 106 ± 3.7% | –
5 | CCCCO[C@@H]1[C@H](OCCCC)[C@@H](OP(=O)(OCOC(C)=O)OCOC(C)=O)[C@H](OP(=O)(OCOC(C)=O)OCOC(C)=O)[C@@H](OP(=O)(OCOC(C)=O)OCOC(C)=O)[C@@H]1OP(=O)(OCOC(C)=O)OCOC(C)=O [Bu2 -Ins(1,4,5,6)P4 /AM, D-2,3-Di-O-butyl-myo-inositol 1,4,5,6-tetrakisphosphate octakis(acetozymethyl)ester] | – | – | – | – | reversal of carbachol-mediated inhibition of chloride ion secretion (in words) [4]: enhanced chloride ion secretion; reversal of carbachol-mediated inhibition of chloride ion secretion (in words) ([4]; listed as 2,3-Bu2 -Ins(1,4,5,6)P4 /AM): did not reverse carbachol-mediated inhibition of chloride ion secretion stimulated by thapsigargin
6 | CO[C@@H]1[C@H](OC)[C@@H](OP(=O)(OCOC(C)=O)OCOC(C)=O)[C@H](OP(=O)(OCOC(C)=O)OCOC(C)=O)[C@@H](OP(=O)(OCOC(C)=O)OCOC(C)=O)[C@@H]1OP(=O)(OCOC(C)=O)OCOC(C)=O [Me2 -Ins(1,4,5,6)P4 /AM, 2,3-di-O-methyl-myo-inositol 3,4,5,6-TKphosphate oct (acetoxymethyl) ester] | – | 68.4 ± 7.3 % Control | had essentially no effect | 120 ± 10.6% | –
7 | CO[C@@H]1[C@H](OC)[C@H](OP(=O)(OCOC(C)=O)OCOC(C)=O)[C@@H](OP(=O)(OCOC(C)=O)OCOC(C)=O)[C@H](OP(=O)(OCOC(C)=O)OCOC(C)=O)[C@H]1OP(=O)(OCOC(C)=O)OCOC(C)=O [Me2 -Ins(3,4,5,6)P4 /AM, 1,2-di-O-methyl-myo-inositol 3,4,5,6-Tkphosphate oct (acetoxymethyl) ester] | Antagonist of | 107.13 ± 10.2 % Control | reversed the inhibitory effect of Bt2 -Ins(3,4,5,6)P4 /AM | 104 ± 11.1% | reversal of the inhibitory effect of Bt2 -Ins(3,4,5,6)P4 /AM / Ins(3,4,5,6)P4-mediated inhibition (in words) ([3]; listed as Me2 -Ins-(3,4,5,6)P4 /AM): reversed Ins(3,4,5,6)P4 -mediated inhibition of chloride ion secretion
8 | di-palmitoyl-D,L-O-butyryl-phosphatidyl inositol 3,4,5-trisphosphate heptakis (acetoxymethyl) ester [diC16 -Bt-PtdInsP3 /AM] | – | – | – | – | Mechanism and Inositol Polyphosphate Pathway Affected ([2]; pathway: PtdInsP3): Agonist of; effect on carbachol-stimulated / calcium-mediated chloride ion secretion (in words) [5]: inhibited calcium-mediated chloride ion secretion; inhibition of calcium-mediated chloride ion secretion ([5]; pretreatment of T84 cells, FIG. 7): up to 74%
9 | phosphatidylinositol trisphosphate [PtdInsP3, reference compound] | – | – | – | – | effect on carbachol-stimulated / calcium-mediated chloride ion secretion (in words) [5]: No inhibition of calcium-mediated chloride ion secretion
